The text below walks through data of US5470873A, “Diabetes prevention and treatment using gamma-pyrones” (University Technologies International, Inc., priority 1994, dated 1995).

“Also recorded” adds a separate entry of the source.

Assay type in all cases: in vivo
Assay [1] can be described thus: Blood glucose levels in GK rats (NIDDM model), glucose tolerance test. Here is the method: To see whether DPD, alone or in combination with other modalities, had any effect on the control of blood glucose levels, GK rats were treated daily from 4 to 14 weeks of age with one of the following: At 14 weeks of age, glucose tolerance tests were performed by intraperitoneal injection of 2 mg glucose/gm body weight. Blood glucose levels were determined 60 minutes later using methods previously described^64-67. Rats receiving DPD alone were intubated daily with a 1.18 % (w/v) solution of DPD in PBS. At 4 weeks of age, rats received 0.5 ml of the 1.18% solution of DPD. This was increased by 0.1 ml/week so that rats at 14 weeks of age received 1.5 ml of the 1.18% solution of DPD. Control rats received the same volume of PBS only. Rats receiving OSA alone were intubated daily with an aqueous extract of OSA. The extract was prepared by adding 10% dried powdered OSA plant to boiling water, keeping the mixture at the boiling point in a sealed container for 3-4 hours, removing the supernatant, then cooling it for use in intubating the GK rats. This supernatant will be referred to as 10% OSA extract. At 4 weeks of age, rats received 0.5 ml of the 10% OSA extract. This was increased by about 0.15 ml/week so that rats at 14 weeks of age received 2.0 ml of the 10% OSA extract. Control rats received the same volume of PBS. […]

Assay [2] in a line: Blood glucose levels in NOD mice (glucose oxidase method). As to conditions: NOD mice. On the procedure:
NOD mice were dosed with maltol to evaluate its effect on the pathogenesis of type I diabetes. Mice received 5 mg maltol/mouse every other day from age 2 weeks until they were 20 weeks old. Maltol extracted from ginseng as described in Example 2 was used for the first 10 weeks, then maltol purchased from Sigma Co., St. Louis, MO was used thereafter. The mice were kept until they were 35 weeks old. Urine glucose was measured at 3-day intervals from 10 to 35 weeks of age. Urinary glucose and ketone levels were determined using Diastix and Ketostix reagent slips (Miles, Ontario, Canada). Individual mice were classified as being diabetic on the basis of positive glycosuria^38. […] In contrast, 78% of age-matched control mice (22 mice) spontaneously developed autoimmune diabetes. At 35 weeks of age, fasting (8 hours of fasting) and non-fasting blood glucose levels were measured. Blood was obtained from the retro-orbital venous plexus of fasting and nonfasting NOD mice. Glucose levels were measured enzymatically by the glucose oxidase method with o-dianisidine dihydrochloride as the reactive dye ^39-41 . The mean nonfasting blood glucose level of 35 ICR mice (nondiabetic control mice; NOD mice were derived from ICR mice) was 149±27 mg/dl. Any non-fasting mouse with a blood glucose level greater than 230 mg/dl (3 SD above the mean) was scored as diabetic. The mean fasting blood glucose level of 38 ICR mice was 137±28 mg/dl. Any fasting mouse with a blood glucose level greater than 221 mg/dl (3 SD above the mean) was scored as diabetic.

A short description of assay [3]: Pancreatic insulin content (immunoreactive insulin, radioimmunoassay) in NOD mice. As to conditions: NOD mice. On the procedure: Insulin was extracted from the pancreas of non-obese diabetic (NOD) mouse by known methods ^33,34. Briefly, deep frozen pancreatic tissue (50% of each pancreas) was placed into phosphate buffered saline (PBS) and then extraction solution A (380 ml absolute alcohol, 20 ml H2 O, 8 ml concentrated HCl and some drops of alcoholic phenol red) was added. This mixture was homogenized with polytron type PT 10-20-[…] in glass tubes (15×125 mm) for 30 seconds in position 5. The homogenized material in the tubes was incubated at 4° C. for 10 hours. At the end of the incubation period, the homogenized material was centrifuged at 800 g for 5 minutes for clarification. The supernatant was saved. The pellet was re-extracted with 1 ml of extraction solution B (356 ml absolute alcohol, 124 ml H2 O and 7.5 ml HCl). The pellet in extraction solution B was incubated for 4 hours at 4° C. and then homogenized with a polytron as described above. The homogenized material was centrifuged at 800 g for 5 minutes. The supernatant was pooled with the supernatant from the first extraction. The pooled supernatant was neutralized with concentrated NH40 H (about 10 μl ) until the phenol red turned to purple. The neutralized supernatant was precipitated at 4° C. and then centrifuged at 800 g for 5 min. The supernatant, which contains insulin, was used for the measurement of insulin by radioimmunoassay. The concentration of immunoreactive insulin (IRI) in the pancreas from DPD-treated and untreated NOD mice was measured by radioimmunoassay techniques ^42-44 using mouse insulin as a standard. Briefly, the extracted samples from NOD mice were mixed with […], and anti-insulin antibody. The mixed materials were incubated for 2 hours at room temperature. At the end of the incubation period, anti-guinea pig IgG raised in sheep was added and the mixture was incubated for 30 minutes at room temperature. At the end of the incubation, the samples were centrifuged at 1500 g for 10 minutes. The supernatant was completely removed. The radioactivity of the pellets was measured. The percent of activity was determined by the following formula: [formula] On the basis of % activity in standards, a standard curve was constructed. The concentration of each unknown sample from maltol-treated or untreated NOD pancreas was read on the basis of the standard curve. […] The maltol-treated mice have insulin levels that are similar to the non-diabetic, untreated animals. About 75% of the maltol-treated mice have insulin levels over 80 μg/g pancreas and about 25% have insulin levels between 55-75 μg/g pancreas.

As to `Cc1occc(=O)c1O` [DPD, maltol], the “Blood Glucose” value in assay [1] (DPD 1.18% (w/v) in PBS oral daily, 4 to 14 weeks of age, 60 minutes after i.p. 2 mg glucose/gm, PBS control 389 ± 23) came out at 349 ± 42 mg/dL. In addition, the “Effect on control of blood glucose levels (in words)” value in assay [1] (GK rats) was “some reduction of blood glucose levels”. Further, in assay [2], the “Hyperglycemia / clinical diabetes by blood glucose (in words)” value is recorded as “do not exhibit hyperglycemia; also recorded: prevents clinical diabetes”. In addition, the “Pancreatic insulin / protection from beta cell destruction (in words)” value in assay [3] is “prevents depression of pancreatic insulin levels”.
